Where two headings read alike, the source gives them in different places.
How the values were obtained:
[1] = tested on: B16-BL6; details: Banskota et al., J Ethnopharmacol 2002; read-out: EC50 against B16-BL6; cited from earlier work
[2] = tested on: Human colon carcinoma cell line HCT116; experiment: Mechanism of action: microscopy of treated HCT116 cells over time; format: cell-based; details: 30 μM; for cell morphology (mechanism of cell death): imaged at 2-16 h, 63x magnification
Procedure: Human colon carcinoma cell line HCT116 was treated with compounds (IIb), (Ie) and (Id) and observed over a time period to determine the mechanism of cell death. The experiment was conducted as follows:
HCT116 cells were seeded and treated with each compound. At each time point, the cells were imaged using a neutral microscope at 63× magnification prior to fixing. The time points were 2, 4, 6, 8, 12, and 16 hours.
This may potentially be caused by a population doubling at this time-point.

[3] = tested on: MCF-7 (human breast carcinoma cells); experiment: MTT cell proliferation and viability assay, MCF-7; format: cell-based; details: for EC50: MCF7, Table 2, 72 h; for IC50: MCF7, Table 3, 72 h, read-out: Inhibition Concentration (IC50) μM MCF-7 (Breast)
Procedure: (§1) Normal human fibroblast cell lines (GM9503 and GM8399) and human carcinoma cell lines MCF-7, A549, HCT116, SKOV-3 and PC-3 were maintained in DMEM (Dulbeco's Modified Essential Medium) supplemented with 10% FBS (Fetal Bovine Serum). In addition, murine leukemia MDAY-D2 cells were maintained in RPMI 1640 media supplemented with 5% FBS. All media were supplemented with 100 […] (all from Hyclone, Logan, Utah). Cells were incubated in a humidified air atmosphere containing 5% CO2 at 37° C.
(§2) Cell growth and viability were measured using the 3-(4,5-dimethythiazol-2-yl)-2,5-diphenyl tetrazolium bromide (MTT) reduction assay. MTT reagent (Sigma, St. Louis, Mo.) was prepared at 5 mg/ml in ddH2O (5× solution), filter sterilized and stored in the dark at −20° C.
(§3) To determine the optimal number of cells to seed per well, preliminary experiments were conducted examining increasing cell densities in 96 well plates. Cell were seeded at various densities and examined under the microscope after 96 h. Based on these experiments and growth curve analyses, optimal cell densities were selected for each cell line. In brief, exponentially growing cells were harvested and 100 μL of cell suspension containing approximately 2000 cells was plated in 96-well microtiter plates. After 24 hours of incubation to allow for cell attachment, cells were treated with varying concentrations of test samples in medium (60 μL/well) supplemented with 5% FBS and incubated for 72 h at 37° C. under 5% CO2. Three hours after the addition of MTT, the amount of formazan formed was measured spectrophotometrically at 570 nm with a Spectramax Plus 384 plate reader.
(§4) To assess the effects of the novel compounds on growth and viability, GM9503 (normal human fibroblast cells; 2.08×10^3 cells/well), GM8399 (normal human fibroblast cells; 2.04×10^3 cells/well), A549 (human lung carcinoma cells; 2.05×10^3 cells/well), HCT116 (human colon carcinoma cells; 2.19×10^3 cells/well), MCF-7 (human breast carcinoma cells; 2.19×10^3 cells/well), SKOV-3 (human ovarian carcinoma cells; 2.10×10^3 cells/well), PC-3 (human prostate carcinoma cells; 2.08×10^3 cells/well) and MDAY-D2 (murine leukemia cells; 2.5×10^3 cells/well) were seeded in 96 well plates in supplemented medium. Twenty-four hours post-seeding, cells were treated with either DMEM supplemented with 5% FBS (as a control) or with compounds (IIb), (Ie) and (Id) at increasing concentrations. After incubation for 72 h, cell growth and viability were measured. Each compound was tested in triplicate and the data shown in Tables 2-4 represent the mean of viable cells compared to medium control.

[4] = tested on: SKOV-3 (human ovarian carcinoma cells); experiment: MTT cell proliferation and viability assay, SKOV-3; format: cell-based; details: SK-OV-3, Table 3, 72 h, read-out: Inhibition Concentration (IC50) μM SKOV-3 (Ovarian)
Procedure: as §1, §2, §3, §4

[5] = tested on: GM8399 (normal human fibroblast cells); experiment: MTT cell proliferation and viability assay, GM8399; format: cell-based; details: Table 4, comparative toxicity, 72 h, read-out: Inhibition Concentration (IC50) μM GM8399 (normal human fibroblast)
Procedure: as §1, §2, §3, §4

[6] = tested on: A549 (human lung carcinoma cells); experiment: MTT cell proliferation and viability assay, A549; format: cell-based; details: for EC50: Table 2, 72 h; for IC50: Table 3, 72 h, read-out: Inhibition Concentration (IC50) μM A549 (Lung)
Procedure: as §1, §2, §3, §4

[7] = tested on: B-16 melanoma cell line; experiment: [3H]-thymidine incorporation, in vitro anticancer activity; format: cell-based; details: B16, 24 h + 24 h incubation
Procedure: The cell lines were maintained in EMEM medium supplemented with 10% FCS, 0.1% sodium bicarbonate and 12 mM glutamine. In a typical procedure, 1×10^4 cells were seeded into each of 96 well plate in 90 μL volume of medium. The plates were incubated for 24 h in the presence of CO2 to allow for cell attachment. After 24 h, test compounds were evaluated at five 10 fold dilutions from 1:10, 1:100, 1:1000, 1:10000 and 1:100000. To each test well 100 μL of test compound solution was added and the medium with vehicle was added to control wells and the plates were further incubated. After 24 h of incubation, 10 μL of [3H]-thymidine was added to each well to obtain a 1 μCi concentration per well and incubated for a further 24 h. The plates were terminated, cells harvested and read by microbeta plate reader.

[8] = tested on: MDAY-D2 (murine leukemia cells); experiment: MTT cell proliferation and viability assay, MDAY-D2; format: cell-based
Procedure: as §1, §2, §3, §4

[9] = tested on: HCT116 (human colon carcinoma cells); experiment: MTT cell proliferation and viability assay, HCT116; format: cell-based; details: for IC50: HCT-116, Table 3, 72 h, read-out: Inhibition Concentration (IC50) μM HCT116 (Colon); for EC50: HCT-116, Table 2, 72 h
Procedure: as §1, §2, §3, §4

[10] = tested on: GM9503 (normal human fibroblast cells); experiment: MTT cell proliferation and viability assay, GM9503; format: cell-based; details: for EC50: Table 2, 72 h, read-out: Human (EC50) μM GM9503 (Normal Skin Fibroblast); for IC50: Table 4, comparative toxicity, 72 h, read-out: Inhibition Concentration (IC50) μM GM9503 (Normal human fibroblast)
Procedure: as §1, §2, §3, §4

[11] = tested on: PC-3 (human prostate carcinoma cells); experiment: MTT cell proliferation and viability assay, PC-3; format: cell-based; details: Table 3, 72 h, read-out: Inhibition Concentration (IC50) μM PC-3 (Prostate)
Procedure: as §1, §2, §3, §4

[12] = Mus musculus, MDAY-D2, Table 2, 72 h

Row | SMILES | EC50 [1] [µM] | IC50 [3] [µM] | IC50 [4] [µM] | IC50 [5] [µM] | IC50 [6] [µM] | IC50 [9] [µM] | IC50 ([10]; Homo sapiens, Fibroblast) [µM] | IC50 [11] [µM] | further results
1 | CC(=O)OC(COC(=O)/C=C/c1ccc(O)cc1)COC(=O)/C=C/c1ccc(O)cc1 [(2E,2′E)-2-acetoxypropane-1,3-diyl bis(3-(4-hydroxyphenyl)acrylate)] | 81.9 |  |  |  |  |  |  |  | 
2 | COc1cc(/C=C/C(=O)OCC(COC(=O)/C=C/c2ccc(O)cc2)OC(C)=O)ccc1O (stereo not shown) [(E)-2-acetoxy-3-(((E)-3-(4-hydroxy-3-methoxyphenyl)acryloyl)oxy)propyl 3-(4-hydroxyphenyl)acrylate] | 66 |  |  |  |  |  |  |  | 
3 | O=C(/C=C/c1ccc(O)c(O)c1)OCc1ccccc1 [Benzyl caffeate, benzyl caffeate] | 2.03 |  |  |  |  |  |  |  | 
4 | O=C(/C=C/c1ccc(O)c(O)c1)OCC(O)COC(=O)/C=C/c1ccc(O)c(O)c1 [Compound (IIb), (2E,2′E)-2-hydroxypropane-1,3-diyl bis(3-(3,4-dihroxyphenyl) acrylate] |  | 74.5 | 15.8 | 38 | 21 | 27 | 71.2 | 6.76 | relative aggressiveness of apoptosis induction ([2]; compared among (IIb), (Ie), (Id)): the most aggressive; cell morphology (mechanism of cell death) [2]: exhibited the characteristic membrane blebbing morphology commonly seen during apoptosis; EC50 [3]: 1 µM; EC50 [6]: 2.17 µM; EC50 [7]: 6.12 µM; EC50 [8, 12]: 3.4 µM; EC50 ([10]; Homo sapiens, Fibroblast): 57.9 µM
5 | COc1ccc(/C=C/C(=O)OCC(O)COC(=O)/C=C/c2ccccc2)cc1OC (stereo not shown) [Compound (Id), (E)-3-(cinnamoyloxy)-2-hydroxypropyl 3-(3,4-dimethoxyphenyl) acrylate] |  | 85.2 | 22 | 16 | 18.2 | 11.5 | 60 | 9.07 | cell morphology (mechanism of cell death) [2]: exhibited the characteristic membrane blebbing morphology commonly seen during apoptosis; EC50 [3]: 72.2 µM; EC50 [6]: 0.59 µM; EC50 [7]: 1.08 µM; EC50 [8, 12]: 5 µM; EC50 [9]: 102 µM
6 | O=C(/C=C/c1ccccc1)OCC(O)COC(=O)/C=C/c1ccc(O)c(O)c1 (stereo not shown) [Compound (Ie), (E)-3-(cinnamoyloxy)-2-hydroxypropyl 3-(3,4-dihydroxypheyl)acrylate] |  | 33 | 16.5 | 23 | 33.2 | 27.9 | 37 | 9.04 | cell morphology (mechanism of cell death) [2]: exhibited the characteristic membrane blebbing morphology commonly seen during apoptosis; EC50 [3]: 25.9 µM; EC50 [6]: 0.64 µM; EC50 [8, 12]: 1.5 µM; EC50 [9]: 59.2 µM
7 | C[S+](C)[O-] [DMSO] |  |  |  |  |  |  |  |  | EC50 ([8]; Table 2, 72 h): 43.6 µM; EC50 [10]: 20.3 µM
8 | O=C(O)/C=C/c1ccc(O)c(O)c1 [caffeic Acid, caffeic acid, reference compound] |  |  |  | 24 |  |  | 22 |  | 
9 | O=C(/C=C/c1ccc(O)c(O)c1)OCC=Cc1ccccc1 [cinnamyl caffeate] | 1.92 |  |  |  |  |  |  |  | 
10 | CC(=O)O[C@H]1C(=O)[C@@]2(C)[C@H]([C@H](OC(=O)c3ccccc3)[C@]3(O)C[C@H](OC(=O)[C@H](O)[C@@H](NC(=O)c4ccccc4)c4ccccc4)C(C)=C1C3(C)C)[C@]1(OC(C)=O)CO[C@@H]1C[C@@H]2O [paclitaxel, reference compound] |  | 11.7 | 0.75 | 2.1 | 0.69 | 0.59 | 0.7 | 1.32 | 
11 | O=C(/C=C/c1ccc(O)c(O)c1)OCCc1ccccc1 [phenethyl caffeate] | 3.16 |  |  |  |  |  |  |  | 

Source: patent US10052301B2, “Derivatives of propane diyl dicinnamate” (ORX PHARMACEUTICAL CORPORATION, priority 2009, dated 2018)
